Results reported in US20100021950A1, “SCREENING METHOD FOR ANTI-DIABETIC COMPOUNDS” (priority 2007, published 2010).
Like-named read-outs stand apart in the source and are kept apart here.

B1: wt EphA5: full-length EphA5 protein over-expressed in MIN6 cells from pEGFP-wtEphA5 (protein, UniProt Q60629 1-876, looked up)
chain: MRGSGPRGAGHRRTQGRGGGDDTPRVPASLAGCYSAPLKGPLWTCLLLCAALRTLLASPSNEVNLLDSRTVMGDLGWIAFPKNGWEEIGEVDENYAPIHTYQVCKVMEQNQNNWLLTSWISNEGASRIFIELKFTLRDCNSLPGGLGTCKETFNMYYFESDDENGRSIKENQYIKIDTIAADESFTELDLGDRVMKLNTEVRDVGPLSKKGFYLAFQDVGACIALVSVRVYYKKCPSVVRHLAIFPDTITGADSSQLLEVSGSCVNHSVTDDPPKMHCSAEGEWLVPIGKCMCKAGYEEKNGTCQAPSPVTNVKKGKIAKNSISLSWQEPDRPNGIILEYEIKYFEKDQETSYTIIKSKETSITAEGLKPASVYVFQIRARTAAGYGVFSRRFEFETTPVSVAASNDQSQIPIIAVSVTVGVILLAVMIGFLLSGSCCDCGCGRASSLCAVAHPSLIWRCGYSKAKQDPEEEKMHFHNGHIKLPGVRTYIDPHTYEDPNQAVHEFAKEIEASCITIERVIGAGEFGEVCSGRLKLPGKRELPVAIKTLKVGYTEKQRRDFLGEASIMGQFDHPNIIHLEGVVTKSKPVMIVTEYMENGSLDTFLKKNDGQFTVIQLVGMLRGIAAGMKYLSDMGYVHRDLAARNILINSNLVCKVSDFGLSRVLEDDPEAAYTTRGGKIPIRWTAPEAIAFRKFTSSSDVWSYGIVMWEVVSYGERPYWEMTNQDVIKAVEEGYRLPSPMDCPAALYQLMLDCWQKDRNSRPKFDEIVNMLDKLIRNPSSLKTLVNASSRVSTLLAEHGSLGSGAYRSVGEWLEAIKMGRYTEIFMENGYSSMDAVAQVTLEDLRRLGVTLVGHQKKIMSSLQEMKVQMVNGMVPV
modifications: full-length EGFP fusion
notes: full-length EphA5 protein over-expressed in MIN6 cells from pEGFP-wtEphA5

Legend:
mouse pancreatic islets [1] = experiment: Insulin secretion from mouse pancreatic islets; type: cell-based; settings: 25 mM glucose, 1 h; Fc fusion proteins 4 μg/ml, peroxovanadate 10 μM; compared with Fc
Source text: Pancreatic islets were isolated from NMRI mice for all experiments, except for the experiments with male ephrin-A5-/- and control littermates, which were C57BL/6 (Knoll et al. (2001) Development 128, 895). All mice used were 8-10 weeks old. Human pancreatic islets were isolated from a perfused human pancreas by using a protocol approved by the Ethical Research Committee of the Technical University Medical School Dresden and according to the law of the State of Saxony. Mouse and human islets were cultured overnight in Dulbecco's modified Eagle's medium (DMEM) containing 11 mM glucose (Gibco), supplemented with 10% heat inactivated fetal calf serum (FCS), 100U/ml Penicillin, 100 μg/ml Streptomycin, 1.5 g/L NaHCO3 in a humidified atmosphere (5% CO2, 37° C.). […]
For insulin secretion measurements, islets or MIN6 cells were starved for 1 h in Krebs Ringer Buffer (KRB) containing 115 mM NaCl, 5 mM KCl, 1.2 mM KH2PO4, 1 mM MgSO4, 2.5 mM CaCl2, 24 mM NaHCO3, 2 mM glucose, 25 mM HEPES (pH 7.4), and 0.1% bovine serum albumin. […] The amount of secreted insulin was measured in the medium, and islets or MIN6 cells were subsequently dissolved in RIPA buffer to measure insulin content and total protein content. […] Secreted insulin and insulin content were measured by using ultra-sensitive rat insulin ELISA kit (Crystal Chem inc.). The total protein content was measured using BCA kit (Molecular Probes). […]

EphA5 = EphA5 immunoprecipitation and phosphotyrosine Western blot, MIN6 cells; type: cell-based, mouse; settings: 10 μM, 25 mM glucose, 5 min
Experimental: MIN6 cells and pancreatic islets were lysed in RIPA buffer, supplemented with protease and phosphatase inhibitors. 1 μg total protein, isolated from MIN6 cell lysates or 500 ng total protein, isolated from islet lysates, were used for immunoprecipitation with 1:1,000-diluted rabbit-anti-EphA5 (Santa Cruz) and protein-A beads (Amersham). For immunoprecipitation/pull-down of Rac1-GTP with Pak1-PBD (P21-activated kinase-1-P21 Binding Domain) and Westem blots, a Rac1 Activation StressXPress Kit (Biomol) was used. The immunoprecipitates were separated on 4-12% gradient SDS-polyacrylamide gels (Invitrogen) and transferred onto a PVDF membrane (Amersham). For western blots, 1:500-diluted rabbit-anti-EphA5 antibody (Santa Cruz), 1:1,000-diluted mouse-anti-PY antibody (Biomol) and 1:200-diluted rabbit-anti-Rac1 antibody (Santa Cruz) were used. 1:10,000-diluted HRP-conjugated donkey-anti-rabbit antibody (Dianova) and 1:5,000-diluted HRP-conjugated goat-anti-mouse antibody (Dianova) were used as secondary antibodies. Western blots were developed using an ECL system (Amersham). The intensities of EphA5 and Rac1 bands were normalized to the intensities of total EphA5 and Rac1, respectively, and presented as % of basal control. The intensities of the bands were quantified by using TotalLab software (Stratagene).

mouse pancreatic islets [2] = settings: 10 μM, Gogg et al. (2001); cited from earlier work
MIN6 cells = experiment: Insulin secretion from MIN6 cells; type: cell-based, mouse; settings: 25 mM glucose
Source text: MIN6 cells (Miyazaki et al. (1990) Endocrinol. 127, 126) at passages 37-47 were maintained as previously described (Nikolova et al. (2006) Dev. Cell 10, 397). The cells were electroporated with pEGFP, pEGFP-wtEphA5 (Gao et al. (1998) Proc. Natl. Acad. Sci. U.S.A. 95, 5329), pEGFP-DN-EphA5 (Gao et al. (1998) Proc. Natl. Acad. Sci. U.S.A. 95, 5329), pEGFP-ephrin-A5, (Wimmer-Kleikamp et al. (2004) J. Cell Biol. 164, 661), pEGFP-wtRac1, pEGFP-DN-Rac1 (Rac1N17) (Hall (2005) Biochem. Soc. Trans. 33, 891) and pcDNA-Cx36 constructs (Ravier et al. (2005) Diabetes 54, 1798); siRNA against firefly luciferase (control siRNA), ephrin-A5 and Cx36 by using Amaxa nucleofection (Amaxa biosystems).
For insulin secretion measurements, islets or MIN6 cells were starved for 1 h in Krebs Ringer Buffer (KRB) containing 115 mM NaCl, 5 mM KCl, 1.2 mM KH2PO4, 1 mM MgSO4, 2.5 mM CaCl2, 24 mM NaHCO3, 2 mM glucose, 25 mM HEPES (pH 7.4), and 0.1% bovine serum albumin. After starvation, medium was exchanged for the same buffer +/− Fc fusion proteins to measure basal secretion, or for KRB containing 25 mM glucose +/− Fc fusion proteins to measure glucose-stimulated insulin secretion, during 1 h incubation. When Fc fusion proteins were used, islets were continuously shaken (300-500 rpm) to facilitate access of Fc fusion proteins to islet β-cells. The amount of secreted insulin was measured in the medium, and islets or MIN6 cells were subsequently dissolved in RIPA buffer to measure insulin content and total protein content. Secreted insulin was normalized to total insulin content and total protein content, and presented as % of basal control insulin secretion. In all histograms, the first column represents the basal control (=100%), except in FIG. 3C, in which the third column is taken as basal control. Secreted insulin and insulin content were measured by using ultra-sensitive rat insulin ELISA kit (Crystal Chem inc.). The total protein content was measured using BCA kit (Molecular Probes). […]

Row | Molecule | glucose-stimulated insulin secretion (mouse pancreatic islets [1]) | glucose-induced EphA5 dephosphorylation (EphA5) | EphA5 phosphorylation levels at stimulatory conditions (EphA5; relative to basal levels) | glucose-stimulated insulin secretion (mouse pancreatic islets [2]) | glucose-stimulated insulin secretion (MIN6 cells; confluent MIN6 cells, 1 h, Fc fusion proteins 4 μg/ml, peroxovanadate 10 μM, compared with Fc) | glucose-stimulated insulin secretion (MIN6 cells; over-expression in confluent MIN6 cell monolayers, vs empty vector) | glucose-stimulated insulin secretion in PV-treated MIN6 cells (MIN6 cells; over-expression, 10 μM peroxovanadate, vs empty vector/PV)
1 | peroxovanadate | reduced | effectively prevented | increased | strongly reduced | reduced |  | 
2 | B1 |  |  |  |  |  | decreased | reduced
